In BigSolDB 2.1:

Settings: in ethanol

## CC(C)C1=CC2=CC[C@@H]3[C@](C)(CCC[C@@]3(C)C(=O)O)[C@H]2CC1
285.07 K
  solubility (mole fraction): 0.0165
288.7 K
  solubility (mole fraction): 0.0183
292 K
  solubility (mole fraction): 0.0202
294.8 K
  solubility (mole fraction): 0.0219
297.05 K
  solubility (mole fraction): 0.0235
299.63 K
  solubility (mole fraction): 0.0253
301.8 K
  solubility (mole fraction): 0.0272
304.05 K
  solubility (mole fraction): 0.0291
306.05 K
  solubility (mole fraction): 0.0311
308.22 K
  solubility (mole fraction): 0.0335
310.35 K
  solubility (mole fraction): 0.036
312.35 K
  solubility (mole fraction): 0.0385
315.23 K
  solubility (mole fraction): 0.041
316.85 K
  solubility (mole fraction): 0.0439
319.03 K
  solubility (mole fraction): 0.0467
